Assay results as given in ChEMBL document CHEMBL2417377, “Hit-to-lead optimization and kinase selectivity of imidazo[1,2-a]quinoxalin-4-amine derived JNK1 inhibitors” (Bioorg Med Chem Lett, 2013).

Assays:
Conditions in all cases: PC-3
[1] = molecular target: T1, Ephrin type-B receptor 2 (Homo sapiens) (UniProt P29323); experiment: Inhibition of EphB2 in human PC3 cell lysates at 10 uM using desthiobiotin-tagged ATP probe AX9989 followed by trypsinization by LC/MS analysis
T1 sequence (whole entry): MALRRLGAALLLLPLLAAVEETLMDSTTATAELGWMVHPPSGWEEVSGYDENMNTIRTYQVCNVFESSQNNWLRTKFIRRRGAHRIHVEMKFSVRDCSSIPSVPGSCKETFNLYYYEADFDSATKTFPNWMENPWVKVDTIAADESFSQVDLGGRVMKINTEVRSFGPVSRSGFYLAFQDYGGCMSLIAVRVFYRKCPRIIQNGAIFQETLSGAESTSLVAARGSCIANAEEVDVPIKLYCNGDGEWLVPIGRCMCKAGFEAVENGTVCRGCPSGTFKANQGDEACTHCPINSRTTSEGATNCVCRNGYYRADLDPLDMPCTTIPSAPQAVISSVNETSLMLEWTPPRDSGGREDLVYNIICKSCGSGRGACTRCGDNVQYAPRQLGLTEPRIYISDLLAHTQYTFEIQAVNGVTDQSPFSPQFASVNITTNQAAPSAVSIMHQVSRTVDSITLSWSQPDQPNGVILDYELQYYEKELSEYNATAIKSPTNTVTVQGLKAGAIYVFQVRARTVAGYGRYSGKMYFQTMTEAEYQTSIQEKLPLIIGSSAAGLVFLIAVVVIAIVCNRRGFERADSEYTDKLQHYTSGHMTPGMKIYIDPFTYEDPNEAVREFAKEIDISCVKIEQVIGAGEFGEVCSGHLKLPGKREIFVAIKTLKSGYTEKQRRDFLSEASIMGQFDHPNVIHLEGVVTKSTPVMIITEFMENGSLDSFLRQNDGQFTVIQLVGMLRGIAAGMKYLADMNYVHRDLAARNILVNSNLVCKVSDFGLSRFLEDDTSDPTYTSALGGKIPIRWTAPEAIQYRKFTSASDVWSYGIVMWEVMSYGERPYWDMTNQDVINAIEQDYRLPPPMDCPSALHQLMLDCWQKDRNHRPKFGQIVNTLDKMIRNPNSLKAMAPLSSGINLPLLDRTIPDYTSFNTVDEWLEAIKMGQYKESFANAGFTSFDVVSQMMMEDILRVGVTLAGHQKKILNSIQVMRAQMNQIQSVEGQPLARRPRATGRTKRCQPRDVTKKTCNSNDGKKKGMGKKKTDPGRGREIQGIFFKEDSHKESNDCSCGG

[2] = molecular target: T2, Serine/threonine-protein kinase TAO2 (Homo sapiens) (UniProt Q9UL54); experiment: Inhibition of TAO2 in human PC3 cell lysates at 10 uM using desthiobiotin-tagged ATP probe AX9989 followed by trypsinization by LC/MS analysis
T2 sequence (whole entry): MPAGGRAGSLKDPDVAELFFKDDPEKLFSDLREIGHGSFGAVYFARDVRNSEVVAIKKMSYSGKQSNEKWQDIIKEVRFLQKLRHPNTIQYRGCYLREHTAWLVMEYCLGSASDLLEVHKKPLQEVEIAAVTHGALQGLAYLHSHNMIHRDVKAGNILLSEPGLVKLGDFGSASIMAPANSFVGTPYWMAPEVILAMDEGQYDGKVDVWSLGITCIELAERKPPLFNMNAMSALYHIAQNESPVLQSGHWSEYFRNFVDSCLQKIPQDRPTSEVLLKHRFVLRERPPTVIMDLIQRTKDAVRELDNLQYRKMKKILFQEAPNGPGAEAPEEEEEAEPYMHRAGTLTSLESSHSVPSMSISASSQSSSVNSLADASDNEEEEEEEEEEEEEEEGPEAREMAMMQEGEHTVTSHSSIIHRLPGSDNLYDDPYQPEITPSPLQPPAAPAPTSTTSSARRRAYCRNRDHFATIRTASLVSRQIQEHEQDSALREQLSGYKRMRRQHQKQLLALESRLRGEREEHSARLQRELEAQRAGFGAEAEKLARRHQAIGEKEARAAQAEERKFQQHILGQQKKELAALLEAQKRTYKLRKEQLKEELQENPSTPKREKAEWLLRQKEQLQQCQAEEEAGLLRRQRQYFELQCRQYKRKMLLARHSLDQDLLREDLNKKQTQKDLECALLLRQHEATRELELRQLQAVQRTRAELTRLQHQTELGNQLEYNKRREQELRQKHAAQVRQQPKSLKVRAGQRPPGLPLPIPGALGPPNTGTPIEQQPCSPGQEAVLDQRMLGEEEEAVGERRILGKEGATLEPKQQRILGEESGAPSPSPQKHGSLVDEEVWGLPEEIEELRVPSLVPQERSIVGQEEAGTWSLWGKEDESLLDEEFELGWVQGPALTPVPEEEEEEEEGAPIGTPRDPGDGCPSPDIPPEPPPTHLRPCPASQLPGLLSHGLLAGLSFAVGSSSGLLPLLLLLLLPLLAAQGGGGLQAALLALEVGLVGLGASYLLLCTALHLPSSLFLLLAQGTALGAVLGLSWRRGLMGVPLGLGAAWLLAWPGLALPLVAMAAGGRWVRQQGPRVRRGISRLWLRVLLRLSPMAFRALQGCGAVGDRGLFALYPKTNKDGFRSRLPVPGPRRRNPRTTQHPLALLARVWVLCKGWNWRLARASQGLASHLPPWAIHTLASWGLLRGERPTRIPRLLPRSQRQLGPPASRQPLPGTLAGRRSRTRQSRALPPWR

[3] = molecular target: T3, Acylglycerol kinase, mitochondrial (Homo sapiens) (UniProt Q53H12); experiment: Inhibition of AGK in human PC3 cell lysates at 10 uM using desthiobiotin-tagged ATP probe AX9989 followed by trypsinization by LC/MS analysis
T3 sequence (whole entry): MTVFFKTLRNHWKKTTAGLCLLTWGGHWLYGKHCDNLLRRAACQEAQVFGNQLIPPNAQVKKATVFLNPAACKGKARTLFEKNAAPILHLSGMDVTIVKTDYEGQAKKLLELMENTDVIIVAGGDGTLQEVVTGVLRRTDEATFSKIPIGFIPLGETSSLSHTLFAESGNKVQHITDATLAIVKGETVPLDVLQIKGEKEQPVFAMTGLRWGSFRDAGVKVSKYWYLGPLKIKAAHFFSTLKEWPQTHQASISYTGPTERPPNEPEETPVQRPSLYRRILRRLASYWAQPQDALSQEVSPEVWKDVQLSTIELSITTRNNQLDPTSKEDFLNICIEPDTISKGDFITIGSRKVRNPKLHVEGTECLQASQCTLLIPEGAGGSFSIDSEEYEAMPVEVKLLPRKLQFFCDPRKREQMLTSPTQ

[4] = molecular target: Cyclin-dependent kinase 8 (Homo sapiens) (UniProt P49336); experiment: Inhibition of CDK8 in human PC3 cell lysates at 10 uM using desthiobiotin-tagged ATP probe AX9989 followed by trypsinization by LC/MS analysis
Sequence of Cyclin-dependent kinase 8 (Homo sapiens) (P49336 whole entry): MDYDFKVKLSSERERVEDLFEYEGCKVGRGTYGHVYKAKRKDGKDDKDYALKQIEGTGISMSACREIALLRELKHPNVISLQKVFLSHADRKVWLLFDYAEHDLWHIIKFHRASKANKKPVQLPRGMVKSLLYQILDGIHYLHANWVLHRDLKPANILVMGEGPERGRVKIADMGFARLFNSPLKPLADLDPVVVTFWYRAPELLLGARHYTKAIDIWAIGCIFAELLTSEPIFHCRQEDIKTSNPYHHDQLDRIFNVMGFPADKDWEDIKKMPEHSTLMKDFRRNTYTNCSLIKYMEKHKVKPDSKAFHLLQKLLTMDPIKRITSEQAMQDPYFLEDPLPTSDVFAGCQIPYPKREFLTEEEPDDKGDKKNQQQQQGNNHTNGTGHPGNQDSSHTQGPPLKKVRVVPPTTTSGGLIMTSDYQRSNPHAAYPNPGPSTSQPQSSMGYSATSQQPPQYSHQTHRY

For `O=C(N[C@H](CO)c1ccccc1)c1ccc2nc(N[C@H]3CC[C@H](O)CC3)c3nccn3c2c1`, the inhibition [1] was less than 35%, the inhibition [2] was less than 35% and the inhibition [3] was less than 35%. It also gave an inhibition [4] of less than 35%.
For `CC(C)(NC(=O)c1ccc2nc(N[C@H]3CC[C@H](O)CC3)c3nccn3c2c1)c1ccccc1`, the inhibition [1] was less than 35%, the inhibition [2] was less than 35% and the inhibition [3] was less than 35%. It also gave an inhibition [4] of less than 35%.
`O=C(NC1(Cc2ccc(F)cc2)CC1)c1ccc2nc(N[C@H]3CC[C@H](O)CC3)c3nccn3c2c1` showed an inhibition [1] of less than 35%, an inhibition [2] of less than 35% and an inhibition [3] of less than 35%. For the same compound, the inhibition [4] was less than 35%.
`O=C(O)c1ccc2nc(N[C@H]3CC[C@H](O)CC3)c3nccn3c2c1` gave an inhibition [1] of less than 35%, an inhibition [2] of 67% and an inhibition [3] of less than 35%. It also gave an inhibition [4] of less than 35%.
For `CCC[C@@H](NC(=O)c1ccc2nc(N[C@H]3CC[C@H](O)CC3)c3nccn3c2c1)c1ccccc1`, the inhibition [1] was less than 35%, the inhibition [2] was less than 35% and the inhibition [3] was less than 35%. For the same compound, the inhibition [4] was less than 35%.
In the case of `C[C@H](NC(=O)c1ccc2nc(N[C@H]3CC[C@H](O)CC3)c3nccn3c2c1)c1ccccc1`, the inhibition [1] is reported as less than 35%, the inhibition [2] is reported as less than 35% and the inhibition [3] is reported as less than 35%. For the same compound, the inhibition [4] was less than 35%.
`O=C(NC1(c2ccccc2)CC1)c1ccc2nc(N[C@H]3CC[C@H](O)CC3)c3nccn3c2c1` was tested, and the inhibition [1] was less than 35%, the inhibition [2] was less than 35% and the inhibition [3] was less than 35%. The inhibition [4] was less than 35%.
For `O=C(NC1(c2ccccc2)CCC1)c1ccc2nc(N[C@H]3CC[C@H](O)CC3)c3nccn3c2c1`, the inhibition [1] was less than 35%, the inhibition [2] was less than 35% and the inhibition [3] was less than 35%. For the same compound, the inhibition [4] was less than 35%.
Compound `C[C@@H](NC(=O)c1ccc2nc(N[C@H]3CC[C@H](O)CC3)c3nccn3c2c1)c1ccccc1` has an inhibition [1] of less than 35%, an inhibition [2] of less than 35% and an inhibition [3] of less than 35%. The inhibition [4] was less than 35%.
`O=C(NC1(c2ccc(F)cc2)CC1)c1ccc2nc(N[C@H]3CC[C@H](O)CC3)c3nccn3c2c1` gave an inhibition [1] of less than 35%, an inhibition [2] of less than 35% and an inhibition [3] of less than 35%. For the same compound, the inhibition [4] was less than 35%.
`NC(=O)c1ccc2nc(N[C@H]3CC[C@H](O)CC3)c3nccn3c2c1` gave an inhibition [1] of less than 35%, an inhibition [2] of less than 35% and an inhibition [3] of less than 35%. The inhibition [4] was less than 35%.
In the case of `CC[C@@H](NC(=O)c1ccc2nc(N[C@H]3CC[C@H](O)CC3)c3nccn3c2c1)c1ccccc1`, the inhibition [1] is reported as less than 35%, the inhibition [2] is reported as less than 35% and the inhibition [3] is reported as less than 35%. The inhibition [4] was less than 35%.
